Where “and” joins values, the source holds several entries; their conditions need not be identical. Equal values may be shown once.
Molecular target: T1, PfMDH (Plasmodium falciparum, UniProt Q6VVP7)
T1 construct: The full-length WT PfMDH gene was cloned into pETM-13; made in house; host or cells: E. coli Rosetta 2 (DE3) pLysS
Experiment: Thermal shift assay (TSA)
Type: binding
Details: for TSA melting curve raw signal: triplicate columns; for TSA melting curve raw fluorescence signal: three replicate columns
Procedure: The TSA experiment was conducted in a BioRad CSX 96 (Biorad). Each reaction consisted of 1 mM of compound (100 mM stock in 100% (v/v) DMSO) and 10 μM PfMDH in 100 mM Na–phosphate buffer pH 7.4, 400 mM NaCl, and 10× Sypro Orange (Invitrogen) for a total volume of 100 μl. Control experiments were performed with 1% (v/v) DMSO. Inflection points were determined using BioRad CFX96™ control software. Generally, a temperature increase of over 1 °C is interpreted as a result of the stabilization of the protein-ligand interaction. On the contrary, a negative shift is considered a destabilization caused by the fragment.

T1 sequence (Q6VVP7 entry or part of it): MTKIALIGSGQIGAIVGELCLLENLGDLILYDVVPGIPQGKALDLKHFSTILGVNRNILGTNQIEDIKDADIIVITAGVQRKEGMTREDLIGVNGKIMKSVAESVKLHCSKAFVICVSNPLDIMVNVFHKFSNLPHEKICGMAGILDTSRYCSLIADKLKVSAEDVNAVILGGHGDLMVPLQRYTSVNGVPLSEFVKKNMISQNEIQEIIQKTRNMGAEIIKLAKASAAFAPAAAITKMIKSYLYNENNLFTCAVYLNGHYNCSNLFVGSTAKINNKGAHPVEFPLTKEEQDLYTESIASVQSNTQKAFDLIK

With `CC(C)c1ccc(-c2csc(N)n2)cc1` [4PA-iPr] the “TSA melting curve raw signal” value (Temperature 25) was 8994.553 and 9647.617 and 6438.185, the “TSA melting curve raw signal” value (Temperature 28.5) was 8708.714 and 9422.913 and 6243.713 and the “TSA melting curve raw signal” value (Temperature 29) was 8666.326 and 9387.251 and 6213.386. For the same molecule, the “TSA melting curve raw signal” value (Temperature 29.5) was 8621.607 and 9346.814 and 6180.231, the “TSA melting curve raw signal” value (Temperature 30) was 8573.486 and 9300.135 and 6142.94 and the “TSA melting curve raw signal” value (Temperature 30.5) was 8522.699 and 9247.509 and 6102.88. For the same molecule, the “TSA melting curve raw signal” value (Temperature 31) was 8469.615 and 9188.155 and 6059.768, the “TSA melting curve raw signal” value (Temperature 31.5) was 8414.733 and 9123.458 and 6015.201 and the “TSA melting curve raw signal” value (Temperature 32) was 8359.407 and 9056.051 and 5970.18. For the same molecule, the “TSA melting curve raw signal” value (Temperature 32.5) was 8304.924 and 8988.081 and 5926.995, the “TSA melting curve raw signal” value (Temperature 33) was 8252.482 and 8921.905 and 5886.489 and the “TSA melting curve raw signal” value (Temperature 33.5) was 8202.645 and 8859.372 and 5849.818. For the same molecule, the “TSA melting curve raw signal” value (Temperature 34) was 8155.604 and 8800.883 and 5816.694, the “TSA melting curve raw signal” value (Temperature 34.5) was 8111.732 and 8745.628 and 5787.575 and the “TSA melting curve raw signal” value (Temperature 35) was 8070.534 and 8693.896 and 5761.965. The “TSA melting curve raw signal” value (Temperature 35.5) was 8031.026 and 8644.443 and 5738.964, the “TSA melting curve raw signal” value (Temperature 36) was 7993.542 and 8596.911 and 5718.436 and the “TSA melting curve raw signal” value (Temperature 36.5) was 7957.673 and 8551.007 and 5700.528. The “TSA melting curve raw signal” value (Temperature 37) was 7922.464 and 8507.049 and 5684.445, the “TSA melting curve raw signal” value (Temperature 37.5) was 7887.874 and 8463.879 and 5669.608 and the “TSA melting curve raw signal” value (Temperature 38) was 7853.441 and 8420.795 and 5655.816. For the same molecule, the “TSA melting curve raw signal” value (Temperature 38.5) was 7818.479 and 8377.106 and 5642.728, the “TSA melting curve raw signal” value (Temperature 39) was 7782.8 and 8332.642 and 5629.831 and the “TSA melting curve raw signal” value (Temperature 39.5) was 7746.169 and 8286.504 and 5617.536. The “TSA melting curve raw signal” value (Temperature 40) was 7708.198 and 8238.766 and 5605.837, the “TSA melting curve raw signal” value (Temperature 40.5) was 7669.164 and 8190.253 and 5594.748 and the “TSA melting curve raw signal” value (Temperature 41) was 7629.283 and 8141.701 and 5584.57. For the same molecule, the “TSA melting curve raw signal” value (Temperature 41.5) was 7588.559 and 8093.153 and 5575.514, the “TSA melting curve raw signal” value (Temperature 42) was 7547.254 and 8045.202 and 5567.299 and the “TSA melting curve raw signal” value (Temperature 42.5) was 7505.687 and 7998.361 and 5560.186. For the same molecule, the “TSA melting curve raw signal” value (Temperature 43) was 7464.06 and 7952.024 and 5554.6, the “TSA melting curve raw signal” value (Temperature 43.5) was 7421.867 and 7905.832 and 5550.504 and the “TSA melting curve raw signal” value (Temperature 44) was 7379.597 and 7859.513 and 5547.899. For the same molecule, the “TSA melting curve raw signal” value (Temperature 44.5) was 7337.446, the “TSA melting curve raw fluorescence signal” value (Temperature 73.5) was 5613.749 and 6203.164 and 5886.042 and the “TSA melting curve raw fluorescence signal” value (Temperature 74) was 5569.101 and 6153.132 and 5854.081. The “TSA melting curve raw fluorescence signal” value (Temperature 74.5) was 5525.043 and 6104.144 and 5823.779, the “TSA melting curve raw fluorescence signal” value (Temperature 75) was 5482.121 and 6056.683 and 5794.617 and the “TSA melting curve raw fluorescence signal” value (Temperature 75.5) was 5439.984 and 6011.409 and 5766.404. For the same molecule, the “TSA melting curve raw fluorescence signal” value (Temperature 76) was 5398.991 and 5968.463 and 5738.594, the “TSA melting curve raw fluorescence signal” value (Temperature 76.5) was 5359.122 and 5928.32 and 5710.64 and the “TSA melting curve raw fluorescence signal” value (Temperature 77) was 5320.849 and 5890.984 and 5682.195. For the same molecule, the “TSA melting curve raw fluorescence signal” value (Temperature 77.5) was 5284.278 and 5856.438 and 5652.603, the “TSA melting curve raw fluorescence signal” value (Temperature 78) was 5250.129 and 5824.453 and 5622.025 and the “TSA melting curve raw fluorescence signal” value (Temperature 78.5) was 5218.737 and 5795.085 and 5590.553. The “TSA melting curve raw fluorescence signal” value (Temperature 79) was 5190.081 and 5767.8 and 5558.166, the “TSA melting curve raw fluorescence signal” value (Temperature 79.5) was 5164.369 and 5742.56 and 5524.814 and the “TSA melting curve raw fluorescence signal” value (Temperature 80) was 5141.29 and 5718.857 and 5491.376. For the same molecule, the “TSA melting curve raw fluorescence signal” value (Temperature 80.5) was 5120.384 and 5696.2 and 5457.362, the “TSA melting curve raw fluorescence signal” value (Temperature 81) was 5101.31 and 5674.042 and 5422.806 and the “TSA melting curve raw fluorescence signal” value (Temperature 81.5) was 5083.427 and 5652.313 and 5387.856. For the same molecule, the “TSA melting curve raw fluorescence signal” value (Temperature 82) was 5065.661 and 5630.45 and 5352.463, the “TSA melting curve raw fluorescence signal” value (Temperature 82.5) was 5047.726 and 5608.308 and 5316.196 and the “TSA melting curve raw fluorescence signal” value (Temperature 83) was 5028.992 and 5585.969 and 5279.628. For the same molecule, the “TSA melting curve raw fluorescence signal” value (Temperature 83.5) was 5009.082 and 5563.202 and 5242.696, the “TSA melting curve raw fluorescence signal” value (Temperature 84) was 4988.359 and 5539.6 and 5205.226 and the “TSA melting curve raw fluorescence signal” value (Temperature 84.5) was 4967.168 and 5515.215 and 5167.448. For the same molecule, the “TSA melting curve raw fluorescence signal” value (Temperature 85) was 4945.239 and 5489.971 and 5129.648, the “TSA melting curve raw fluorescence signal” value (Temperature 85.5) was 4923.212 and 5463.869 and 5091.727 and the “TSA melting curve raw fluorescence signal” value (Temperature 86) was 4900.827 and 5436.832 and 5053.765. For the same molecule, the “TSA melting curve raw fluorescence signal” value (Temperature 86.5) was 4877.872 and 5409.317 and 5016.032, the “TSA melting curve raw fluorescence signal” value (Temperature 87) was 4854.433 and 5381.152 and 4978.26 and the “TSA melting curve raw fluorescence signal” value (Temperature 87.5) was 4830.501 and 5352.422 and 4939.972. The “TSA melting curve raw fluorescence signal” value (Temperature 88) was 4805.564 and 5322.651 and 4900.899, the “TSA melting curve raw fluorescence signal” value (Temperature 88.5) was 4779.827 and 5291.937 and 4861.053 and the “TSA melting curve raw fluorescence signal” value (Temperature 89) was 4753.311 and 5260.016 and 4820.436. For the same molecule, the “TSA melting curve raw fluorescence signal” value (Temperature 89.5) was 4725.882 and 5227.256 and 4779.347 and the “TSA melting curve raw fluorescence signal” value (Temperature 90) was 4698.144.
